# Measured values published in patent publication US10272117B2, “Methods of using an activator of cereblon for neural cell expansion and the treatment of central nervous system disorders” (Celgene Corporation, priority 2014, dated 2019).
# Test system: zebrafish embryos
# Assay: Quantitative PCR of gene expression in zebrafish embryos
# Type: in vivo
# Description: BRD7-knockdown zebrafish embryos show similar phenotypes as CRBN-overexpressing zebrafish embryos. For example, expression of HuC in untreated, CRBN-overexpressing, and BRD7-knockdown zebrafish embryos was compared by quantitative PCR. Quantitative PCR was performed as follows: 1.7 μg of random […] and oligo-dT primed cDNA synthesized by ReverTra Ace qPCR RT Kit (TOYOBO, Japan) (as template) were used for reverse transcription by THUNDERBIRD™ SYBR® qPCR Mix (Toyobo, Japan). 0.25 mM of each forward and reverse primers were used in the reaction, wherein the sequence of the forward primer was 5′-[…]-3′ (SEQ ID NO: 9); and the sequence of the reverse primer was 5′-[…]-3′ (SEQ ID NO: 10).
# Expression of Pou5f1 (Oct3/4), c-Myc, Sox2, and Nanog in zebrafish embryos was analyzed by quantitative PCR. Quantitative RT (qRT)-PCR was performed as follows: 1.7 μg of random hexamer and oligo-dT primed cDNA synthesized by ReverTra Ace qPCR RT Kit (TOYOBO, Japan) (as template) were used for reverse transcription by THUNDERBIRD™ SYBR® qPCR Mix (Toyobo, Japan). 0.25 mM of each forward and reverse primers was used in the reaction. The sequences of primers for c-Myc are as follows: forward primer is 5′-[…]-3′ (SEQ ID NO: 15), and reverse primer is 5′-GTAAAACGACGGCCAGT-3′ (SEQ ID NO: 16). The sequences of primers for sox2 are as follows: forward primer is 5′-ACCCCGGAGGAAAACCAA-3′ (SEQ ID NO: 17), and reverse primer is 5′-CCCGGCAGGGTGTACTTG-3′ (SEQ ID NO: 18). The sequences of primers for nanog are as follows: forward primer is 5′-TACCCAACACACCAGCTTC-3′ (SEQ ID NO: 19), and reverse primer is 5′-GAAGGGTGTTTTTGGAGGA-3′ (SEQ ID NO: 20).
# Expression of a pool of three genes, Ascl1, Brn2 (Pou3f2), and Myt1la, is sufficient to directly reprogram embryonic and postnatal fibroblasts into functional neurons. See, e.g., Vierbuchen and Wernig, Nat Biotechnol. 29:892-907 […]. […] Primer sequences for amplification for Ascl1a are as follows: forward primer is 5′-ACGAGCATGACGCCGTA-3′ (SEQ ID NO: 21), and reverse primer is 5′-[…]-3′ (SEQ ID NO: 22). Primer sequences for amplification for Pou3f2b are as follows: forward primer is 5′-[…]-3′ (SEQ ID NO: 23), and reverse primer is 5′-[…]-3′(SEQ ID NO: 24). Primer sequences for amplification for Myt1la are as follows: forward primer is 5′-[…]-3′ (SEQ ID NO: 25), and reverse primer is 5′-[…]-3′ (SEQ ID NO: 26). FIG. […]
# Notch3 and Neuropilin2b (Nrp2b) are required for cell proliferation progression. Notch3 regulates the timing of neural differentiation from undifferentiated or immature cells, and Nrp2b regulates cell proliferation and remodeling in mesenchymal stem cells by cooperating with PDGF (platelet-derived growth factor). Therefore, expression of Notch3 and Neuropilin 2b (Nrp2b) was analyzed in untreated and CRBN-overexpressing zebrafish embryos by quantitative PCR. The primers used for Notch3 are as follows: the sequence for forward primer is 5′-[…]-3′ (SEQ ID NO: 27), and the sequence for reverse primer is 5′-[…]-3′ (SEQ ID NO: 28). The primers used for Nrp2b are as follows: the sequence of forward primer is 5′-[…]-3′ (SEQ ID NO: 29), and the sequence of reverse primer is 5′-[…]-3′ (SEQ ID NO: 30). FIG. 29A is a histogram showing the mRNA level of Notch3 and Nrp2b in untreated, CRBN-overexpressing, and thalidomide-treated zebrafish embryos at 11 hpf by quantitative PCR. As shown, expression of Notch3 in the CRBN-overexpressing embryos increased to 1.8-fold of the level in the untreated embryos at 11 hpf, and expression of Nrp2b in the CRBN-overexpressing embryos increased to 2.7-fold of the level in the untreated embryos at the same stage.
# Elval3 (Huc) is a neural progenitor marker. Expression of Elavl3 (Huc) was also analyzed by quantitative PCR and in situ hybridization. […]
# [1] = 11 hpf, compared to untreated embryos
Substance,"expression of Nanog (change) (11 hpf, FIG. 13)","expression of Pou5f1 (change) (11 hpf, FIG. 13)","expression of Zic3 (change) (11 hpf, FIG. 13)",Nanog expression [1],Pou5f1 expression [1],Sox2 expression [1],Zic3 expression [1],expression of Ascl1a (change) (23 hpf),expression of Pou3f2b (change) (23 hpf),expression of Ascl1 (change) (28 hpf),expression of Myt1la (change) (28 hpf),expression of Nanog (change) (28 hpf),expression of Pou3f2b (change) (28 hpf),expression of Pou3f3a (change) (28 hpf),expression of Sox2 (change) (28 hpf),expression of c-Myc (change) (28 hpf),expression of Ascl1 (change) (11 hpf),expression of Brn2 (Pou3f2b) (change) (11 hpf),expression of Myt1l (change) (11 hpf),"HuC (Elavl3) expression level (11 hpf, fold of level in untreated embryos)"
"5′-AGAGCTGTAGCTGGTTCCCCATTTC-3′ (all phosphorodiamidate morpholino (PMO)) [CRBN-knockdown, 25-mer antisense morpholino oligonucleotide (AMO) used for the CRBN gene knockdown, reference compound]",decreased,decreased,decreased,0.8 fold,0.8 fold,0.7 fold,0.8 fold,decreased,decreased,,,,,,,,,,,
"5′-TTCCTGTGCCTCCTCAGTCTCCATC-3′ (all phosphorodiamidate morpholino (PMO)) [Ikaros-knockdown, 25-mer antisense morpholino oligonucleotide (AMO) used for the Ikaros gene knockdown]",,,,,,,,increased,increased,increased,increased,activated,increased,increased,activated,activated,,,,
"5′-TGTGTTTCTTGTGCTTTTTGCCCAT-3′ (all phosphorodiamidate morpholino (PMO)) [BRD7-knockdown, 25-mer antisense morpholino oligonucleotide (AMO) used for the BRD7 gene knockdown]",increased,significantly increased,increased,,,,,,,increased,increased,,,increased,,,increased,increased,increased,1.7 fold
